Experimental data as given in patent publication US20250109127A1, “METHODS OF USE OF PHENOXYPROPYLAMINE COMPOUNDS TO TREAT DEPRESSION” (Minerva Neurosciences, Inc., priority 2013, published 2025).
Values joined by “and” are separate entries in the source; they are usually repeats but may differ in a detail not shown here. Identical values can stand only once.

Tested on: 5-HIAA release in the rat prefrontal cortex
Assay: Microdialysis: 5-HIAA release in prefrontal cortex after I.P. administration
Type: in vivo
Settings: for 5-HIAA in dialysate, MEAN / 5-HIAA in dialysate, individual animals: Citalopram 10 mg/kg I.P.
Description: The aim of the study was to evaluate, using microdialysis, the effects of an intraperitoneal (I.P.) administration in rats of three different doses of SON-117 on dopamine and its metabolites, serotonin and its metabolite (5-HIAA), and norepinephrine levels in prefrontal cortex.
Thirty-two adult male Wistar rats were used for the whole study (4 groups of eight animals planned for the study, Table 1).
Surgery was performed on rats weighing about 300 g at the beginning of the experiments. Rats were anaesthetized with Ketamine (50 mg/kg) & Xylazine (15 mg/kg) by intramuscular administration. The animals were placed in a stereotaxic apparatus in the flat-skull position at a constant setting of −3.3 mm between ear bars and the incisor bar. The animals were treated with a local anesthesic (xylocaine 1%, Astra Zeneca) and an analgesic (Temgesic, from Schering Plough, 0.05 mg/kg, s.c.). A rostrocaudal midline incision was made with a lancet to expose the dorsal skull surface. The “stereotaxic zero” was defined by the Bregma in accordance with Paxinos and Watson's atlas (1986). A hole was drilled in the skull with a drill and the meninges were pierced with a sterile needle to implant a CMA12 guide cannula which later received the dialysis probe.
Coordinates used for implanting guide cannula in prefrontal cortex from Bregma were anteroposterior 3.7 mm, mediolateral 0.8 mm, and dorsoventral −2 mm (top of the probe was at −5 mm). The guide cannula was fixed to the skull with two stainless steel screws (1.88 mm outside diameter) anchored. An application of dental cement was added. A plastic collar allowed each animal to be tethered to a Swivel assembly of the CMA 120 awake animal system. Following surgery, rats were kept in individual cages and allowed to recover for a minimum of 3-5 days before the experimentation. The rats were handled and put in plastic bowl for 10 min at least every day to habituate the animals to their new environment for the dialysis. An I.P. administration with saline was also performed every day.
Dialysis probes (CMA12/3 mm, membrane, 20 kD cut-off, Carnegie Medicine, Stockholm, Sweden), were carefully washed before inserting into the guide cannula. The wash was performed with the artificial cerebrospinal fluid (aCSF) medium (NaCl 147 mM, KCl 2.7 mM, CaCl2 1.2 mM, MgCl2 0.85 mM) at room temperature. The dialysis system was then equilibrated at 20° C. at a perfusion rate of 1 μl/min with a Carnegie pump (CMA100). All catheters (FEP tubing, internal volume of 1.2 μl/10 cm, and tubing adaptors) used for microdialysis were treated in the same conditions.
The probes duly prepared were inserted into the guide cannula and the CMA120 Swivel assembly secured to the animal using a plastic collar. Flow through the dialysis probe with aCSF was maintained at a rate of 1 μl/min during the whole experimentation. The first four fractions (corresponding to 2 hours) were discarded to avoid the effects of parenchymal disturbance and to ensure that an approximate steady-state level was reached. Fractions were then collected over a period of 8.5 h during which time the animals remained quiet. The dialysates were automatically collected with an autosampler (microfraction collector CMA 140, Carnegie Medicin) and stored at −80° C. until analysis. […] Perfusion was then maintained for 7 hours with aCSF. The dialysates (30 μl) were collected into 300 μl vials, transferred into dry ice and then kept frozen (−80° C.) until analysis. Frozen samples were shipped to a partner for analysis. At the end of the microdialysis study, a PBS with colored ink was perfused through the probe in order to visualize the dialyzed area.
Catecholamine assay: Concentrations of dopamine, DOPAC, HVA, 5-HIAA, 5-HT, and norepinephrin were determined for each sample by HPLC coupled with electrochemical detection.

CN(C)CCCC1(c2ccc(F)cc2)OCc2cc(C#N)ccc21 (stereo not drawn) [Citalopram, citalopram, reference compound]
5-HIAA in dialysate, MEAN (T30-T1 h): 112.98 % of respective basal | 5-HIAA in dialysate, individual animals (T30-T1 h): 108.67 % of respective basal and 107.01 % of respective basal and 121.99 % of respective basal and 141.67 % of respective basal and 110.50 % of respective basal and 102.40 % of respective basal and 95.39 % of respective basal and 116.20 % of respective basal | 5-HIAA in dialysate, MEAN (T1 h 30-T2 h): 89.03 % of respective basal | 5-HIAA in dialysate, individual animals (T1 h 30-T2 h): 79.21 % of respective basal and 80.54 % of respective basal and 115.42 % of respective basal and 91.93 % of respective basal and 89.59 % of respective basal and 74.91 % of respective basal and 97.01 % of respective basal and 83.65 % of respective basal | 5-HIAA in dialysate, MEAN (T1 h-T1 h 30): 101.94 % of respective basal | 5-HIAA in dialysate, individual animals (T1 h-T1 h 30): 100.18 % of respective basal and 85.46 % of respective basal and 131.13 % of respective basal and 121.97 % of respective basal and 98.30 % of respective basal and 88.97 % of respective basal and 88.75 % of respective basal and 100.76 % of respective basal | 5-HIAA in dialysate, MEAN (T2 h 30-T3 h): 72.04 % of respective basal | 5-HIAA in dialysate, individual animals (T2 h 30-T3 h): 51.39 % of respective basal and 53.65 % of respective basal and 94.55 % of respective basal and 76.96 % of respective basal and 86.07 % of respective basal and 61.11 % of respective basal and 78.96 % of respective basal and 73.66 % of respective basal | 5-HIAA in dialysate, MEAN (T2 h-T2 h 30): 82.39 % of respective basal | 5-HIAA in dialysate, individual animals (T2 h-T2 h 30): 86.10 % of respective basal and 66.06 % of respective basal and 115.98 % of respective basal and 81.96 % of respective basal and 87.60 % of respective basal and 62.15 % of respective basal and 79.47 % of respective basal and 79.79 % of respective basal | 5-HIAA in dialysate, MEAN (T3 h 30-T4 h): 74.61 % of respective basal | 5-HIAA in dialysate, individual animals (T3 h 30-T4 h): 73.28 % of respective basal and 61.52 % of respective basal and 99.49 % of respective basal and 73.39 % of respective basal and 75.64 % of respective basal and 59.18 % of respective basal and 77.94 % of respective basal and 76.45 % of respective basal | 5-HIAA in dialysate, MEAN (T3 h-T3 h 30): 73.07 % of respective basal | 5-HIAA in dialysate, individual animals (T3 h-T3 h 30): 74.34 % of respective basal and 48.79 % of respective basal and 107.40 % of respective basal and 68.89 % of respective basal and 77.21 % of respective basal and 56.57 % of respective basal and 77.95 % of respective basal and 73.43 % of respective basal | 5-HIAA in dialysate, MEAN (T4 h 30-T5 h): 71.07 % of respective basal | 5-HIAA in dialysate, individual animals (T4 h 30-T5 h): 75.13 % of respective basal and 59.79 % of respective basal and 90.52 % of respective basal and 59.71 % of respective basal and 66.71 % of respective basal and 59.77 % of respective basal and 77.37 % of respective basal and 79.55 % of respective basal | 5-HIAA in dialysate, MEAN (T4 h-T4 h 30): 73.18 % of respective basal | 5-HIAA in dialysate, individual animals (T4 h-T4 h 30): 72.77 % of respective basal and 52.24 % of respective basal and 97.15 % of respective basal and 67.66 % of respective basal and 75.69 % of respective basal and 64.72 % of respective basal and 80.07 % of respective basal and 75.12 % of respective basal | 5-HIAA in dialysate, MEAN (T5 h 30-T6 h): 68.38 % of respective basal | 5-HIAA in dialysate, individual animals (T5 h 30-T6 h): 55.76 % of respective basal and 56.52 % of respective basal and 86.58 % of respective basal and 66.99 % of respective basal and 65.74 % of respective basal and 68.20 % of respective basal and 71.48 % of respective basal and 75.45 % of respective basal | 5-HIAA in dialysate, MEAN (T5 h-T5 h 30): 69.50 % of respective basal | 5-HIAA in dialysate, individual animals (T5 h-T5 h 30): 50.96 % of respective basal and 91.09 % of respective basal and 61.61 % of respective basal and 64.79 % of respective basal and 60.00 % of respective basal and 84.10 % of respective basal and 73.94 % of respective basal | 5-HIAA in dialysate, MEAN (T6 h 30-T7 h): 67.44 % of respective basal | 5-HIAA in dialysate, individual animals (T6 h 30-T7 h): 61.13 % of respective basal and 52.63 % of respective basal and 87.81 % of respective basal and 64.43 % of respective basal and 57.20 % of respective basal | 5-HIAA in dialysate, MEAN (T6 h-T6 h 30): 63.81 % of respective basal | 5-HIAA in dialysate, individual animals (T6 h-T6 h 30): 60.01 % of respective basal and 53.66 % of respective basal and 90.97 % of respective basal and 62.02 % of respective basal and 55.94 % of respective basal and 67.93 % of respective basal and 47.86 % of respective basal and 72.09 % of respective basal | 5-HIAA in dialysate, MEAN (T-30 min-T0 (pre-dose)): 102.91 % of respective basal | 5-HIAA in dialysate, MEAN (T-1 h 30-T-1 h (pre-dose)): 97.47 % of respective basal | 5-HIAA in dialysate, MEAN (T-1 h-T-30 min (pre-dose)): 98.99 % of respective basal | 5-HIAA concentration in prefrontal cortex, significant slight increase (citalopram 10 mg/kg IP, at 0.5 h and 1 h): 113%
